Results: US20220175954A1, “HYPOXIA-INDUCING CRYOGELS” (priority 2019, published 2022)

Tests used:
4T1 breast cancer cells = assay: Cancer cell viability under chemotherapeutic drugs in blank cryogels or HICs; assay type: cell-based; settings: for IC50: Mus musculus
Procedure: IC50 was calculated using a linear regression in the linear part of each curve (Y=mX+n with Y=50 and X=IC50). Data are representative of n=6 samples per set of conditions.
(§1) Data are representative of n=6 samples per set of conditions.
(§2) The capacity of HICs to prevent cancer cell death when exposed to chemotherapeutic drugs was analyzed. 4T1 breast cancer cells or B16-F10 melanoma cells were cultured in normoxia within blank cryogels or HICs and treated with several concentrations of doxorubicin or cisplatin (0.1-100 μM) for 24 h, 48 h, or 72 h. Both 4T1 (FIGS. 24 and 25) and B16-F10 (FIGS. 26 and 27) cells within blank cryogels were sensitive to doxorubicin treatment. […] HICs induced up to 100-fold increase in cancer cell resistance to cisplatin after 72 h compared to blank cryogels.

B16-F10 melanoma cells = assay: as above; assay type: cell-based; settings: for IC50: Mus musculus
Procedure: as §1, §2

[1] = after 72 h, stated for 4T1 and B16-F10 together

IC50 (4T1 breast cancer cells; 4T1, 24 h, 4T1 cells in HICs, 24 h)	IC50 (4T1 breast cancer cells; 4T1, 24 h, 4T1 cells within blank cryogels, 24 h)	IC50 (4T1 breast cancer cells; 4T1, 48 h, 4T1 cells in HICs, 48 h)	IC50 (4T1 breast cancer cells; 4T1, 48 h, 4T1 cells within blank cryogels, 48 h)	IC50 (4T1 breast cancer cells; 4T1, 72 h, 4T1 cells in HICs, 72 h)	IC50 (4T1 breast cancer cells; 4T1, 72 h, 4T1 cells within blank cryogels, 72 h)	IC50 (B16-F10 melanoma cells; B16-F10, 24 h, B16-F10 cells in HICs, 24 h)	IC50 (B16-F10 melanoma cells; B16-F10, 24 h, B16-F10 cells within blank cryogels, 24 h)	IC50 (B16-F10 melanoma cells; B16-F10, 48 h, B16-F10 cells in HICs, 48 h)	IC50 (B16-F10 melanoma cells; B16-F10, 48 h, B16-F10 cells within blank cryogels, 48 h)	IC50 (B16-F10 melanoma cells; B16-F10, 72 h, B16-F10 cells in HICs, 72 h)	IC50 (B16-F10 melanoma cells; B16-F10, 72 h, B16-F10 cells within blank cryogels, 72 h)	Structure (SMILES)	increase in cancer cell resistance in HICs compared to blank cryogels (4T1 breast cancer cells; [1])	increase in cancer cell resistance in HICs compared to blank cryogels (B16-F10 melanoma cells; [1])
												N.N.[Cl][Pt][Cl] [cisplatin]	up to 100 fold	up to 100 fold
56.8 µM	1.08 µM	50.7 µM	0.55 µM	47.2 µM	0.33 µM	55.7 µM	0.91 µM	46.2 µM	0.37 µM	47.2 µM	0.38 µM	COc1cccc2c1C(=O)c1c(O)c3c(c(O)c1C2=O)C[C@@](O)(C(=O)CO)C[C@@H]3O[C@H]1C[C@H](N)[C@H](O)[C@H](C)O1 [doxorubicin]		
